A melting point compilation (Tetko et al.; mined from patent text by program, amines drawn as free bases though some values may be those of a salt)

melting point [°C]	SMILES
95.8	Cc1cc(-c2ccccc2)nc2c1ccn2-c1ccc(C(C)C)cc1Br
136 to 138	CC[C@H](NC(=O)OC(C)(C)C)c1nc2c(C(F)(F)F)cccc2c(=O)o1
87 to 88	CCCc1c(OCCCOc2cccc3c2CCCC3)ccc2c1OC(CCCC(O)CO)(CCCC(O)CO)CC2=O (centres undefined)
152 to 153	CN(O)C(=O)c1ccc(CCCNc2ccc(O)cc2)cc1
125	CN(C(=O)C(C)(C)C)C1(c2ccccc2)CCNCC1
193	NS(=O)(=O)c1ccc(-n2nc(C(F)(F)F)cc2-c2ccc(-c3ccco3)cc2)cc1Cl
176 to 177	CC(=O)N(C(=O)OC(C)(C)C)c1ccc(-c2nc3n(Cc4c(F)cccc4F)c(C)c(Cc4ccccc4)c(=O)n3c2C)cc1
98 to 99.8	CCC(=O)N(Cc1cccc2c1S(=O)(=O)N=C2C1=C(O)C(C(C)(C)C)N(Cc2ccc(F)c(C)c2)C1=O)S(C)(=O)=O (centres undefined)
276 to 278	Cc1cc2[nH]c(=O)ccc2c(Br)n1
179 to 181	O=C(NCCc1ccc(O)cc1)c1cccnc1
36 to 38	CC(C)COC[C@H](CC(C)C)NC(=O)[C@H]1O[C@@H]1C(=O)OC(C)C
49 to 52	O=Cc1ccc(CCBr)cc1
169 to 171	COc1ccc(CNc2nc(N3CCC[C@H]3CO)cnc2C(=O)O)cc1Cl
230 to 231	CC1CN(c2c(F)cc3c(=O)c(C(=O)O)cn(C4CC4)c3c2F)CC1NC(=O)OC(C)(C)C (centres undefined)
120 to 122	CC1C(=O)Oc2c1cccc2S(=O)c1ccccc1Cl (centres undefined)
67	C#CC(O)c1ccc(C(=O)OC)s1 (centres undefined)
102 to 103	COC(=O)CS(=O)(=O)c1ccccc1C(=O)OC
83 to 85	O=S(=O)(/C=C/c1ccccc1)Nc1ccc(F)cc1
260	CCCCc1cn(Cc2ccc(-c3ccccc3C(=O)O)cc2)c2c(c1=O)CCCC2

melting point [°C]	SMILES
176 to 177	Cn1ncc2c1C(=O)C(Cl)=C(Cl)C2=O
162 to 163	COc1cc2ncnc(N3CCc4ccccc43)c2cc1OC
81.6 to 82.7	CC(C)(C)OC(=O)N[C@@H](Cc1ccccc1)C(=O)N[C@@H](Cc1ccc(O)c(I)c1)C(=O)OCc1ccccc1
130 to 132	CC(CCCC(C)(C)OC1CCCCO1)C1CCC2C3CC=C4CC(O)CC(O)C4(C)C3CCC12C (centres undefined)
151 to 152	N#Cc1ccc(C(=O)NC(=S)NC2CC2)cc1
166 to 167	O=CN1CC2CC2(c2ccc(O)cc2)C1 (centres undefined)
259 to 261	CC(C)(C)C(NC(=O)c1ccc(Cl)cc1)Nc1c(Nc2cccnc2Cl)c(=O)c1=O (centres undefined)
147 to 149	O=C1OC(=O)c2cscc21
85 to 94	CC=CCn1c(C)c(C)c2cnnc(OCc3c(F)cccc3F)c21
165 to 167	CC(C)c1ccccc1-c1nc(-c2ccccc2)n[nH]1
142	CCC(C)Cc1ccc(OC(=O)c2ccc(O)cc2Cl)cc1 (single isomer, unassigned; (+))
65	COCCc1cc([N+](=O)[O-])cc([N+](=O)[O-])c1
109 to 115	CCN(CC)CCOc1ccc(C2c3cc(OC)ccc3-c3ccc4ccccc4c32)cc1 (centres undefined)
> 260	CC(C)(C)c1ccc(C(=O)Nc2cc[nH]c(=O)n2)cc1
164	O=C(c1ccc(F)cc1)C1CCN(CCCn2c(=O)[nH]c3cc(Cl)ccc32)CC1
273 to 275	Nc1nc2n(c(=O)c1N=O)CCN2Cc1ccc(Cl)cc1
82	Cc1cccc(NC(=O)NC(C)C(=O)N(c2ccccc2)c2ccccc2)c1 (racemic)
160 to 164	COc1ccc(OCc2nc(-c3ccc(F)cc3)c(-c3ccc(S(C)(=O)=O)cc3)s2)cc1
199 to 200	c1cncc(-c2ccc3nncn3n2)c1

melting point [°C]	SMILES
58 to 61	CC(C)=Cc1ccc(-c2ccc(CCCI)cc2)cc1
120	CCCN(CCCCNC(=O)N1CCN(c2ccccc2)CC1)C1CCc2ncsc2C1 (centres undefined)
80 to 85	COc1ccc2nc(COc3ccc(CC4SC(=O)N(C(c5ccccc5)(c5ccccc5)c5ccccc5)C4=O)cc3)n(C)c2n1 (centres undefined)
113 to 114	CC1(C2CCCC2)Cc2cc(OCC(=O)O)c(Cl)c(Cl)c2C1=O (centres undefined)
212 to 213	COc1ccc(-c2nc(Cn3cnnc3)nc3cc(OC)c(OC)cc23)cc1
120 to 123	COc1ccc(NN=C(Sc2ccccc2)C(C)=O)cc1
> 295	O=C(c1c[nH]c2c1ccc1c3ccccc3[nH]c12)C(F)(F)F
116 to 118	COC(CN(C)C(=O)Nc1nnc(C(C)Oc2ccc(Cl)cc2)s1)OC (centres undefined)
83 to 85	Nc1ccc(-n2ccn(CCCC3CCCCC3)c2=O)cc1
101 to 102	CCCCCP(=O)(CC(=O)OC)OCc1ccc(-c2ccccc2C(=O)O)cc1 (centres undefined)
195 to 197	O=S(=O)(NC(=S)NC1CCCCC1)c1cnccc1NC1CCCCCC1
78 to 80	C#CCOC(=O)C=CC(=O)OCC#C
160 to 161	Nc1c(CC(=O)N2CCC(O)CC2)cccc1Oc1ccccc1F
85 to 88	COCOc1ccc(C(C(c2ccccc2)c2ccc(F)cc2)C(F)(F)F)cc1 (centres undefined)
195 to 203	CCOC(=O)NN=Cc1nc[nH]c1C
100 to 101	CCCCCCCCCCCCCCOc1ccc(CNC(C)=O)cc1
111 to 113	CCC(C)(C)N1C(=O)C2(COc3cc4c(cc32)OCCO4)c2ccccc21 (centres undefined)
165 to 168	CCCn1c(=O)c(C(=O)OCC)c(N)c2cccnc21

Second part, the molecule before the results:

SMILES	melting point [°C]
Cc1oc(-c2ccccc2)nc1C(O)COc1ccc(C=C2SC(=S)NC2=O)nc1 (centres undefined)	218
C=C(C#N)S(=O)(=O)c1ccc(OC(F)(F)C(Cl)Cl)cc1	89 to 90
N=C(N)Nc1ncc(Cl)c2ccc(S(=O)(=O)N(CCOC3CCCCO3)C3(C(=O)O)CCCC3)cc12 (centres undefined)	281 to 289
N#Cc1cnc2cc(-c3ccc(CN4CCOCC4)o3)ccc2c1Nc1ccc(Cl)cc1Cl	118 to 120
COC(=O)C12COc3cc(C(F)(F)F)ccc3C1=NN(C(=O)Nc1ccc(C(F)(F)F)cn1)C2 (centres undefined)	194 to 195
CNC(=O)COCC(=O)O	33 to 33.5
O=C(NCc1cccnc1)c1ccnc(N2CCN(Cc3ccc(F)cc3)C2=O)c1	153 to 155
CC(C)(Sc1cc(C(C)(C)C)c(O)c(C(C)(C)C)c1)Sc1cc(C(C)(C)C)c(OCCC[C@H](O)CO)c(C(C)(C)C)c1	68 to 71
O=[N+]([O-])C1=C2N(Cc3ccc(Cl)nc3)CCN2C2CCC1O2 (centres undefined)	149 to 150
O=C(O)Cc1cccc2c(=O)cc(-c3c(F)cccc3F)oc12	178 to 180
COC=NS(=O)(=O)c1cc(C(C)C)c(C#N)cc1C(C)C	130 to 132
COC(=O)c1ccc(C#CCc2cccc3c2SCCC3(C)C)cc1	92
COc1cccc(CNC(=O)c2[nH]c3ccc(Cl)cc3c2S(=O)(=O)c2nccs2)c1	205 to 209
CCCCN(CCCC)c1ccc(C=CC2=C(OC)C(=CC=CC3=C(C#N)C(=C(C#N)C#N)OC3(C)C)CC(C)(C)C2)c(OC)c1	244 to 246
CC(=O)OC/C(=C(\C(=O)N(C)CC(C)(C)S)c1ccc(F)cc1)c1ccc(S(C)(=O)=O)cc1	45 to 47
CC(C)(C)C(NC(=O)c1ccc(I)cc1)NC(=NC#N)Nc1cccnc1 (centres undefined)	180 to 183
COc1ccc(C(=O)O)cc1NC(=O)c1cc(C(C)(C)C)c(O)c(C(C)(C)C)c1	259 to 261
COc1cc(CNc2cc(Cl)c(N=CN(C)C)c(Cl)c2)cc(OC)c1	124 to 125
CCCCN(c1cccc(-c2ccnc3c([N+](=O)[O-])cnn23)c1)S(C)(=O)=O	153 to 155
Cc1cccc(C)c1N1Cc2cnc(Nc3ccccc3)nc2N(c2cccc(CCN)c2)C1=O	128
CCn1ncc2c1NC(=O)CC2C(F)(F)F (centres undefined)	129 to 130
OCCNc1ncc(CN2CCN(c3ccccc3)CC2)c2nc(-c3ccco3)nn12	169

SMILES	melting point [°C]
C(=Cc1ccccc1)COC(CCc1ccccc1)Cn1ccnc1 (centres undefined)	116 to 119
CCc1c(CCC(=O)O)c[nH]c1C=O	128 to 134
CCCOc1ccc(CCC(=O)N2CCN(C)CC2)cc1-c1nc2c(C)cccc2c(=O)[nH]1	184 to 185
CCOC[C@]1(OC)CC[C@H]2[C@@H]3CCC4=CC(=O)CCC4=C3[C@@H](c3ccc(C(C)=O)cc3)C[C@@]21C	134 to 137
CC(C)[C@H](NC(=O)OCc1csc(N(C)C)n1)C(=O)N[C@@H](Cc1ccccc1)[C@@H](O)C[C@H](Cc1ccccc1)NC(=O)OCc1cncs1	157 to 159
COc1ccc(Nc2ncc3ccc(=O)n(C4CCCC4)c3n2)cn1	181 to 182
Nc1cc(C2=NOC(c3cc(Cl)cc(Cl)c3)(C(F)(F)F)C2)ccc1-n1cncn1 (centres undefined)	244 to 246
COc1ccc(C(=O)NN=Cc2ccc3ccccc3n2)cc1	217 to 218
N#CCSc1ncc2ccccn12	120 to 122
CCCCCCCCCCCCc1nnn(C(C(=O)O)c2ccccc2)n1 (centres undefined)	76 to 78
CNC(=S)C1(c2ccncc2)CCCCC1=O (centres undefined)	182 to 183
NS(=O)(=O)Oc1ccc(C(=O)c2ccc(OS(N)(=O)=O)cc2)cc1	182 to 185
COc1ccc(/C=C/c2cc(OC)c(OC)c(OC)c2)cc1	152 to 155
CCOC(=O)c1cnc2c(-c3cccc(Cl)c3)cnn2c1Cl	140 to 141
CN=C(NC#N)NCCSCc1ccco1	78 to 82
CC(C)(C)n1ncc(NCCN2CCNC(c3cccc(C(F)(F)F)c3)C2)c(Cl)c1=O (centres undefined)	124 to 127
O=C1CCC2=C1C(c1cc(Br)cs1)C1=C(CCS1)N2 (centres undefined)	254 to 255
CCCCCCCCCCCCCN1CC(=O)C(C#N)=C1N	214 to 215
CP(=O)(NCC(=O)OCc1ccccc1)C1CC(c2ccccc2)=NO1 (centres undefined)	132 to 135
O=Cc1ccc(OCc2ccccc2)cc1OCc1ccccc1	80 to 81
COc1ccc(Cc2ccc(C(=O)O)cc2)cc1	152 to 153
